From US8633252B2, “Use of pterosin compounds for treating diabetes and obesity” (Taipei Medical University, priority 2009, dated 2014)
One block for each compound: values may come before it.

Experiments:
acetyl CoA carboxylase = experiment: Acetyl CoA carboxylase (ACC) phosphorylation assay; type: cell-based; conditions: C2C12 mycrotubes, different concentrations
C2C12 mycrotubes [1] = experiment: Glucose consumption/uptake assay; type: cell-based; conditions: [14C]2-DG, incubated with compounds for 1 hour
Experimental: Differentiated C2C12 mycrotubes (American Type Culture Collection: ATCC) were used to conduct a glucose consumption/uptake assay, which was performed based on the method as described in Experimental and Molecular Medicine, Vol. 39, No. 2, 222-229, 2007. Briefly, the C2C12 cells were pretreated with 0.5 μCi [^14C]2-DG for 20 min and then incubated with compounds for 1 hour to determine glucose uptake by radio activity. All values are expressed as the means±S.E. of three experiments.

PEPCK mRNA = experiment: Phosphoenolpyruvate carboxykinase (PEPCK) mRNA expression assay in liver; type: in vivo; conditions: STZ-induced diabetic mice, 100 mg/kg orally for 14 days, RT-PCR
Experimental: PEPCK is known as a key enzyme that controls gluconeogenesis in the liver. In this study, STZ-induced diabetic mice were treated with Compound 1 orally (100 mg/kg) for 14 days, and then normal mice, STZ-induced diabetic, and the Compound 1-treated STZ-mice described above were analyzed for the PEPCK mRNA expression in liver based on the method as described in Bulletin of Experimental Biology and Medicine 1979; 87: 568-571. Briefly, at the end of the experimental period, animals were sacrificed by exsanguinations under diethyl ether anesthesia. Livers from each animal were excised and weighed. The liver homogenates were prepared to determine the PEPCK mRNA expression by RT-PCR analysis.

db/db mice [2] = experiment: Glucose tolerance assay in type II diabetic mice; type: in vivo; conditions: 100 mg/kg/day orally 28 days or 30 mg/kg/day i.p. 21 or 28 days
Experimental: Insulin-resistant C57BL/6J-Leprdb/Lepr^db (hereafter, db/db) mice are a well-known mouse model of type II diabetes. See, e.g., Metabolism. 2000; 49:22-31). In this study, the db/db mice (Jackson Laboratory) were orally administered with Compound 1 (100 mg/kg/day) for 28 days, or administered with Compound 1 (30 mg/kg/day) via intraperitoneal (i.p.) injection for 21 days or 28 days. Two hours later, normal mice, db/db-mice, and the Compound 1-treated db/db-mice were subjected to a glucose tolerance assay as described in Example 1. FIGS. 6 to 8 show the results.

db/db mice [3] = experiment: HOMA-IR test in type II diabetic mice; type: in vivo; conditions: 100 mg/kg/day orally for 28 days
Experimental: HOMA-IR is expressed by an empirical mathematical formula based on fasting plasma glucose and fasting plasma insulin levels that was developed as a surrogate measurement of in vivo insulin sensitivity: HOMA value for insulin resistance: (HOMA-IR)=fasting insulin (μU/ml)×fasting glucose (mmol/l)/22.5. See, e.g., Biol. Pharm. Bull. 2007; 30:2196-2200.
In this study, the db/db mice (Jackson Laboratory) were orally administered with Compound 1 (100 mg/kg/day) for 28 days. Subsequently, normal mice, db/db-mice, and the Compound 1-treated db/db-mice were subjected to a HOMA-IR test, which was conducted based on a method as described in Biol. Pharm. Bull. 2007; 30:2196-2200. Briefly, mouse insulin enzyme immunoassay ELISA kit was used to measure the plasma insulin concentration. Insulin resistance was determined by the homeostasis model assessment (HOMA) method.

[4] = tested on: Streptozotocin (STZ)-induced diabetic mice; experiment: Glucose tolerance assay in type I diabetic mice; type: in vivo
Experimental: Streptozotocin (STZ)-induced diabetic mice were administered orally with Compound 1 (50 mg/kg). STZ-induced diabetic mice are a well-known mouse model of type I diabetes (insulin dependent). See, e.g., Liu I M, et al., Neuroscience Letters 2001; 307: 81-84.
Two hours later, normal mice, STZ-induced diabetic mice, and the Compound 1-treated STZ-mice as described were subjected to a glucose tolerance assay. Briefly, all of the mice were orally administered with 1 g/kg glucose and the blood glucose levels of these mice were examined at 30, 60, 90, 120 and 150 minutes. In the normal and STZ-diabetic mice, the blood glucose levels elevated 30 minutes after uptake of glucose.
Alternatively, STZ-induced diabetic mice were treated with Compound 1 orally (100 mg/kg) for 14 days. These mice were then orally administered with glucose at a dose of 2 g/kg. Their blood glucose levels were examined 15, 45, 75, and 105 minutes after glucose administration.

db/db mice [5] = experiment: HbA1C (Haemoglobin A1C) test in type II diabetic mice; type: in vivo; conditions: 100 mg/kg/day orally for 28 days
Experimental: In the blood stream, glucose sticks to the haemoglobin to form a “glycosylated haemoglobin” molecule, called haemoglobin A1C or HbA1C. The more glucose in the blood, the more haemoglobin A1C or HbA1C will be present in the blood. The HbA1C test is currently one of the common ways to check if diabetes is under control. See, e.g. Diabetes Care. 2001; 24:465-471.
In this study, the db/db mice (Jackson Laboratory) were orally administered with Compound 1 (100 mg/kg/day) for 28 days. Subsequently, normal mice, db/db-mice, and the Compound 1-treated db/db-mice were subjected to a HbA1C test, which was conducted based on a method as described in Life Sci. 2005; 77:1391-403. Briefly, at the end of the experimental period, animals were sacrificed by exsanguinations under diethyl ether anesthesia. Plasma was separated from the blood by centrifugation. HbA1c in blood was measured by the standardized method.

C2C12 mycrotubes [6] = experiment: Insulin sensitivity assay (glucose uptake in presence of insulin); type: cell-based; conditions: in the presence of insulin 100 nM
Experimental: Differentiated C2C12 mycrotubes (American Type Culture Collection: ATCC) were used to conduct an insulin sensitivity assay, which was performed based on the method as described in Experimental and Molecular Medicine, Vol. 39, No. 2, 222-229, 2007. Briefly, the cells were incubated with different concentrations of Compound 1 in the presence of insulin 100 nM, and then the glucose uptake was measured. AMPK activator AICAR (5-amino-4-carboxamide imidazole riboside 5′-phosphate, […]) was used as a positive control.

[7] = tested on: High fat-diet fed (HFD) mice; experiment: Blood lipid/cholesterol assay in high fat-diet fed mice; type: in vivo; conditions: 100 mg/kg orally for 28 days
Experimental: High fat-diet fed (HFD) mice as a type 2 diabetic model were prepared based on the method as previously described in Diabetes 53 (Suppl. 3):S215-S219, 2004). In this study, mice were fed with a high-fat diet (TestDiet, Richmond, Ind., USA; fat content 60% kcal) for 8 weeks to induce type 2 diabetes. The HFD mice were treated with Compound 1 orally (100 mg/kg) for 28 days; and then normal mice, HFD mice, and the Compound 1-treated HFD mice were analyzed for the levels of serum lipids, including total cholesterol, triglyceride, high-density lipoprotein (HDL)-cholesterol, and low-density lipoprotein (LDL)-cholesterol by ELISA kits.

[8] = tested on: AMP-activated protein kinase (AMPK); experiment: AMPK phosphorylation assay; type: cell-based; conditions: C2C12 myotubes, 0, 1, 3, 10 and 30 μM, 37° C., 1 hour
Experimental: In this study, differentiated C2C12 mycrotubes (American Type Culture Collection: ATCC) were used to conduct an AMPK phosphorylation assay, which was performed based on the method as described in Experimental and Molecular Medicine, Vol. 39, No. 2, 222-229, 2007. Briefly, the cells were cultured as in Example 1 and incubated with different concentrations of Compound 1 (0, 1, 3, 10 and 30 μM) at 37° C. for 1 hour and then cells were lysed. The cell lysate were immunodetected with phosphor-AMPK specific antibody. […] AMPK activator AICAR (5-amino-4-carboxamide imidazole riboside 5′-phosphate, 1 mM) was used as a positive control.

[9] = tested on: Glut4 (glucose transporter-4); experiment: Glucose transporter-4 (Glut4) expression assay in soleus muscles; type: in vivo; conditions: STZ-induced diabetic mice, 100 mg/kg orally for 14 days, western blot
Experimental: GLUT4 plays an important role in insulin-induced glucose uptake to maintain normal blood glucose levels. In this study, STZ-induced diabetic mice were treated with Compound 1 orally (100 mg/kg) for 14 days; and then normal mice, STZ-induced diabetic, and the Compound 1-treated STZ-mice as described were analyzed for the Glut4 expression in soleus muscles based on the method as described in Biochem J. 1996; 313(Pt 1): 133-140). Briefly, at the end of the experimental period, animals were sacrificed by exsanguinations under diethyl ether anesthesia. Soleus muscles from each animal were excised and weighed. The soleus muscles were homogenized in lysis buffer and centrifugation, and then went to determine the GLUT4 protein expression by western blot analysis.

[10] = STZ-induced diabetic mice, 100 mg/kg orally for 14 days, glucose 2 g/kg orally

phosphorylation of the AMPK alpha-subunit at Thr172 [8]: the same effect
SMILES: Cc1cc2c(c(C)c1CCO)C(=O)C(C)C2O (stereo not shown) [Compound 4]

phosphorylation of the AMPK alpha-subunit at Thr172 [8]: the same effect
SMILES: Cc1cc2c(c(C)c1CCO)C(=O)C(C)(C)C2O (stereo not shown) [Compound 7]
HOMA-IR levels (db/db mice [3]): the same effect
blood glucose levels in STZ-induced diabetic mice (glucose tolerance) [4, 10]: the same effect
insulin sensitivity (glucose uptake) (C2C12 mycrotubes [6]): the same effect

phosphorylation of the AMPK alpha-subunit at Thr172 [8]: the same effect
SMILES: Cc1cc2c(c(C)c1CCO)C(=O)C(C)(C)C2OC1OC(CO)C(O)C(O)C1O (stereo not shown) [Compound 73]
HOMA-IR levels (db/db mice [3]): the same effect
blood glucose levels in STZ-induced diabetic mice (glucose tolerance) [4, 10]: the same effect
insulin sensitivity (glucose uptake) (C2C12 mycrotubes [6]): the same effect

Further lines, the compound ahead of its results:

SMILES: Cc1cc2c(c(C)c1CCO)C(=O)C(C)(CO)C2 (stereo not shown) [Compound 1, 6-(2-Hydroxy-ethyl)-2-hydroxymethyl-2,5,7-trimethyl-indan-1-one]
phosphorylation of acetyl CoA carboxylase at Ser79 (acetyl CoA carboxylase): increased phosphorylation
glucose consumption/uptake (C2C12 mycrotubes [1]): significantly promote glucose consumption/uptake
overexpression of PEPCK mRNA in the liver (PEPCK mRNA): significantly inhibited the overexpression of PEPCK mRNA
glucose intolerance in db/db-mice (db/db mice [2]): significantly improved the glucose intolerance
HOMA-IR levels (db/db mice [3]): significantly reduced the HOMA-IR levels
blood glucose levels at 30 minute after glucose uptake ([4]; STZ-diabetic mice, 50 mg/kg orally, 2 hours before 1 g/kg oral glucose, 30 min): increased only slightly
blood glucose levels 60 minutes after glucose uptake ([4]; STZ-diabetic mice, 50 mg/kg orally, 2 hours before 1 g/kg oral glucose, 60 min): significantly lowered
blood glucose levels in STZ-induced diabetic mice (glucose tolerance) [4, 10]: significantly lowered blood glucose levels
blood glucose levels 45 minutes after glucose administration ([4]; STZ-induced diabetic mice, 100 mg/kg orally for 14 days, glucose 2 g/kg orally, 45 min): decreased significantly
HbA1C levels (db/db mice [5]): significantly reduced the HbA1C levels
insulin sensitivity (glucose uptake) (C2C12 mycrotubes [6]): significantly enhanced the insulin sensitivity
anti-obesity effects [7]: exhibited anti-obesity effects
serum lipids ([7]; total cholesterol, triglyceride, HDL- and LDL-cholesterol by ELISA): significantly reduced serum lipids
phosphorylation of the AMPK alpha-subunit at Thr172 [8]: increased the phosphorylation of the AMPK alpha-subunit at Thr^172 in a dose dependent manner
redistribution of Glut4 into the cell membrane of soleus muscles [9]: significantly rescued the redistribution of Glut4

SMILES: Cc1cc2c(c(C)c1CCOC1OC(CO)C(O)C(O)C1O)C(=O)C(C)(C)C2 (stereo not shown) [Compound 52]
phosphorylation of the AMPK alpha-subunit at Thr172 [8]: the same effect
